According to paper PMC9468151, “Identification of a binding site on soluble RANKL that can be targeted to inhibit soluble RANK-RANKL interactions and treat osteoporosis” (Nature Communications, 2022):
“And” between values parts separate entries of the source, which are not always exact repeats. Identical values can stand only once.

How the values were obtained:
T lymphocyte = T lymphocyte cell proliferation assay (CFSE, CD4+/CD8+ flow cytometry); assay type: cell-based, human
Procedure: T lymphocyte cell proliferation assay was performed according to a reported method[58] with some modification. Briefly, 5 × 10^6 cells /mL cells were stained 2.5 μM CFSE (Tonbo Biosciences) and incubated at 37 °C for 12 min. Then washed and discarded the supernatant and adjusted the CFSE stained cell to 1.75 × 10^6 cells /mL. Cells were diluted in 1640 completed medium containing 5 μg/mL anti-CD3 antibody (Tonbo Biosciences) to 3 × 10^5 cells/mL and seed in a 96-well plate or 24-well plate that pre-packaged 0.4 μg/well anti-CD28 antibody and 1.6 μg anti-CD28 antibody (24-well) (Tonbo Biosciences). Cells were then cultured for 3 days, 9 days or 12 days. Subsequently, the proportion of CD4^+ and CD8^+ cells was determined by flow cytometry (Beckman Coulter, FC500) according to manufacturer’s instruction of PE-Cyanine7 anti-Human CD8a and PE anti-Human CD4 antibodies (Tonbo Biosciences). Data analyzing was performed by using CXP software (Beckman Coulter, Supplementary Fig. 8).

sRANKL = biological target: T1, sRANKL (Rattus norvegicus, UniProt Q9ESE2, D175N); assay: STD NMR binding assay with sRANKL; conditions: 100 μM protein, 5 mM compound
T1 construct: (1) sRANKL (rat 159-318 aa); His6-sumo (N, cleaved yes); made in house; host or cells: Escherichia coli BL21 (DE3)
T1 sequence (Q9ESE2 159-318 D175N): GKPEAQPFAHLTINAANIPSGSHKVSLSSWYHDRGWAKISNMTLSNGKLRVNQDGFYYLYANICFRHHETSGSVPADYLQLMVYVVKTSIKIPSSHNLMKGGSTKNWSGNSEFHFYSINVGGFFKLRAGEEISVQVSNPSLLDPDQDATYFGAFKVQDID
Procedure: For NMR studies, purified sRANKL or L-RANKL protein samples were buffer exchanged into PBS (Gbico, C10010500BT, pH7.4) using a Millipore spin column (1500 × g for 15 min at 4 °C, repeated six times, each time adding fresh PBS and discarding the flow-through). Protein concentration was determined using BCA method according to the procedure of Pierce^TM BCA Protein Assay Kit (Thermo Fisher Scientific). Compound S3-15 powder was dissolved in H2O as a concentration of 10 mM.
Protein saturation transfer difference (STD) experiments were performed on Bruker Avance III 500 (500 MHz) spectrometer (Columbia University) at 300 K using triple-resonance cryogenic probes optimized for proton detection. All experiments were performed using an independent sample for each experimental measurement as a 500 μL sample in NMR tubes with 100 μM protein and […] S3-15 in final concentration. Uniformly, for STD assay all samples were contained 50 μL protein, 200 μL S3-15 (10 mM in H2O), and 250 μL D2O; for S3-15 two-dimensional spectra reference, samples were 50 μL PBS, 200 μL S3-15 (10 mM in H2O) and 250 μL D2O.

[1] = Healthy donor 1, 12 day, S3-15 10
[2] = Healthy donor 2, 9 day, S3-15 0.2
[3] = Healthy donor 2, 9 day, S3-15 1
[4] = Healthy donor 2, 9 day, S3-15 5
[5] = Healthy donor 2, 9 day, S3-15 10
[6] = cancer patient donors 1, 3 day, S3-15 conc. 0.2
[7] = cancer patient donors 1, 3 day, S3-15 conc. 1
[8] = cancer patient donors 1, 3 day, S3-15 conc. 5
[9] = cancer patient donors 1, 3 day, S3-15 conc. 10
[10] = healthy donors 2, 9 day, S3-15 conc. 0.2
[11] = healthy donors 2, 9 day, S3-15 conc. 1
[12] = healthy donors 2, 9 day, S3-15 conc. 5
[13] = healthy donors 2, 9 day, S3-15 conc. 10

CC(=O)/C(=N\Nc1ccccc1C(=O)O)C(=O)Nc1ccccn1 [S3-15]
CFSE- cells in total cells (%) (T lymphocyte; Healthy donor 1, 12 day, S3-15 5): 16.98% and 16.53% and 18.76% and 15.2% | CD4+cells in total cells (%) (T lymphocyte; [1]): 24.55% and 25.9% and 26.53% and 28.64% | CD8+ cells in total cells (%) (T lymphocyte; [1]): 25.46% and 18.53% and 18.26% and 16.63% | CD8+cells in CFSE-cells (%) (T lymphocyte; [1]): 73.6% and 72.27% and 73.36% and 76.51% | CFSE- cells in total cells (%) (T lymphocyte; [1]): 23.52% and 17.38% and 18.28% and 16.8% | CD8+ cells in total cells (%) (T lymphocyte; [2]): 60.09% and 60.2% and 40.04% | CD8+cells in CFSE-cells (%) (T lymphocyte; [2]): 54.45% and 45.56% and 52.87% | CFSE- cells in total cells (%) (T lymphocyte; [2]): 42.85% and 34.53% and 42.91% | CD8+ cells in total cells (%) (T lymphocyte; [3]): 57.52% and 60.07% and 56.11% | CD8+cells in CFSE-cells (%) (T lymphocyte; [3]): 48.8% and 34.73% and 39.45% | CFSE- cells in total cells (%) (T lymphocyte; [3]): 48.46% and 65.6% and 38.41% | CD8+ cells in total cells (%) (T lymphocyte; [4]): 39.84% and 41.04% and 43.72% | CD8+cells in CFSE-cells (%) (T lymphocyte; [4]): 45.39% and 36.07% and 59.1% | CFSE- cells in total cells (%) (T lymphocyte; [4]): 43.47% and 38.16% and 54.05% | CD8+ cells in total cells (%) (T lymphocyte; [5]): 61.43% and 57.64% and 58.69% | CD8+cells in CFSE-cells (%) (T lymphocyte; [5]): 58.1% and 47.19% and 40.24% | CFSE- cells in total cells (%) (T lymphocyte; [5]): 51.79% and 37.98% and 32.24% | CD4+cells in total cells (%) (T lymphocyte; [6]): 12.08% and 10.6% and 16.64% and 9.84% | CFSE-CD4+cells in CFSE-cells (%) (T lymphocyte; [6]): 2.66% and 4.81% and 10.71% and 8.92% | CD4+cells in total cells (%) (T lymphocyte; [7]): 18.36% and 15% and 12.2% and 13.48% | CFSE-CD4+cells in CFSE-cells (%) (T lymphocyte; [7]): 2.71% and 4.16% and 9.18% and 4.63% | CD4+cells in total cells (%) (T lymphocyte; [8]): 12.53% and 13.43% and 14.21% and 19.52% | CFSE-CD4+cells in CFSE-cells (%) (T lymphocyte; [8]): 4.9% and 5.71% and 2.54% and 4.68% | CD4+cells in total cells (%) (T lymphocyte; [9]): 8.57% and 13.89% and 11.58% and 13% | CFSE-CD4+cells in CFSE-cells (%) (T lymphocyte; [9]): 6.23% and 7.1% and 4.66% and 4.48% | CD4+cells in total cells (%) (T lymphocyte; healthy donors 1, 3 day, S3-15 conc. 0.2): 58.71% and 65.57% and 73.86% and 89.25% | CD4+cells in total cells (%) (T lymphocyte; healthy donors 1, 3 day, S3-15 conc. 1): 88.98% and 73.53% and 85.9% and 87.87% | CD4+cells in total cells (%) (T lymphocyte; healthy donors 1, 3 day, S3-15 conc. 5): 88.97% and 73.33% and 75.77% and 81.04% | CD4+cells in total cells (%) (T lymphocyte; healthy donors 1, 3 day, S3-15 conc. 10): 84.3% and 76.41% and 71.29% | CFSE-CD4+cells in CFSE-cells (%) (T lymphocyte; healthy donors 1, 12 day, S3-15 conc. 0.2): 11.71% and 10.81% and 13.35% and 13.65% | CFSE-CD4+cells in CFSE-cells (%) (T lymphocyte; healthy donors 1, 12 day, S3-15 conc. 1): 10.81% and 12.31% and 11.84% and 10.58% | CFSE-CD4+cells in CFSE-cells (%) (T lymphocyte; healthy donors 1, 12 day, S3-15 conc. 5): 11% and 11.24% and 11.79% and 10.58% | CFSE-CD4+cells in CFSE-cells (%) (T lymphocyte; healthy donors 1, 12 day, S3-15 conc. 10): 15.92% and 12.12% and 12.19% and 12.32% | CD4+cells in total cells (%) (T lymphocyte; [10]): 20.78% and 19.93% and 21.03% | CFSE-CD4+cells in CFSE-cells (%) (T lymphocyte; [10]): 37.84% and 45.82% and 32.47% | CD4+cells in total cells (%) (T lymphocyte; [11]): 25.04% and 25.92% and 25.62% | CFSE-CD4+cells in CFSE-cells (%) (T lymphocyte; [11]): 42.79% and 60.67% and 51.42% | CD4+cells in total cells (%) (T lymphocyte; [12]): 24.48% and 26.48% and 22.29% | CFSE-CD4+cells in CFSE-cells (%) (T lymphocyte; [12]): 46.81% and 55.67% and 30.69% | CD4+cells in total cells (%) (T lymphocyte; [13]): 21.17% and 21.09% and 21.21% | CFSE-CD4+cells in CFSE-cells (%) (T lymphocyte; [13]): 34.98% and 45.24% and 51.76% | lymphocyte proliferation (T lymphocyte; human lymphocytes, in words): did not change lymphocyte proliferation | STD-NMR binding to sRANKL (sRANKL): binds to sRANKL
